Assay results: the NIST ThermoML archive (doi:10.1021/je0601457)

Experiment: xn = mol fraction of the nth substance listed

Cc1cnccn1 [2-methylpyrazine] + O=C=O
Liquid, linear displacement
Details	mass density [kg/m3]
348.65 K, x1 = 0.624	875
349.45 K, x1 = 0.122	770
349.75 K, x1 = 0.062	660
351.35 K, x1 = 0.857	878
355.05 K, x1 = 0.339	914
355.15 K, x1 = 0.156	799
358.25 K, x1 = 0.091	656
365.65 K, x1 = 0.122	707
371.75 K, x1 = 0.857	858
375.55 K, x1 = 0.156	745
375.75 K, x1 = 0.264	746
376.65 K, x1 = 0.624	845
387.35 K, x1 = 0.339	891

Fluid (supercritical or subcritical phases), Linear displacement technique
Details	mass density [kg/m3]
349.45 K, 14100 kPa, x1 = 0.122	787
349.45 K, 15520 kPa, x1 = 0.122	810
349.45 K, 16310 kPa, x1 = 0.122	824
349.45 K, 18790 kPa, x1 = 0.122	852
349.75 K, 14100 kPa, x1 = 0.062	691
349.75 K, 15100 kPa, x1 = 0.062	722
351.15 K, 13970 kPa, x1 = 0.081	778
351.15 K, 14720 kPa, x1 = 0.081	780
351.15 K, 16720 kPa, x1 = 0.081	783
351.35 K, 3760 kPa, x1 = 0.857	878
351.35 K, 7000 kPa, x1 = 0.857	882
351.35 K, 11210 kPa, x1 = 0.857	888
351.35 K, 17340 kPa, x1 = 0.857	893
352.75 K, 14140 kPa, x1 = 0.039	495
352.75 K, 14790 kPa, x1 = 0.039	525
352.75 K, 15410 kPa, x1 = 0.039	543
355.05 K, 11030 kPa, x1 = 0.339	918
355.05 K, 14660 kPa, x1 = 0.339	927
355.05 K, 17280 kPa, x1 = 0.339	939
355.15 K, 13690 kPa, x1 = 0.156	808
355.15 K, 14590 kPa, x1 = 0.156	821
355.15 K, 16930 kPa, x1 = 0.156	843
358.25 K, 15690 kPa, x1 = 0.091	696
358.25 K, 16450 kPa, x1 = 0.091	714
358.25 K, 17690 kPa, x1 = 0.091	743
358.25 K, 19210 kPa, x1 = 0.091	767
358.25 K, 20690 kPa, x1 = 0.091	787
365.65 K, 17000 kPa, x1 = 0.122	746
365.65 K, 18100 kPa, x1 = 0.122	769
365.65 K, 19170 kPa, x1 = 0.122	786
369.15 K, 15970 kPa, x1 = 0.091	633
369.15 K, 16660 kPa, x1 = 0.091	659
369.15 K, 17340 kPa, x1 = 0.091	681
369.15 K, 18100 kPa, x1 = 0.091	701
369.15 K, 19000 kPa, x1 = 0.091	721
371.75 K, 4380 kPa, x1 = 0.857	861
371.75 K, 8450 kPa, x1 = 0.857	865
371.75 K, 15830 kPa, x1 = 0.857	875
371.75 K, 28450 kPa, x1 = 0.857	889
374.25 K, 14030 kPa, x1 = 0.033	346
374.25 K, 14550 kPa, x1 = 0.033	367
374.25 K, 15000 kPa, x1 = 0.033	384
374.25 K, 16240 kPa, x1 = 0.033	425
374.55 K, 17210 kPa, x1 = 0.081	740
374.55 K, 19210 kPa, x1 = 0.081	768
374.75 K, 16100 kPa, x1 = 0.062	592
374.75 K, 16720 kPa, x1 = 0.062	626
374.75 K, 16970 kPa, x1 = 0.062	639
375.55 K, 16790 kPa, x1 = 0.156	765
375.55 K, 18100 kPa, x1 = 0.156	789
375.55 K, 19970 kPa, x1 = 0.156	811
375.75 K, 17000 kPa, x1 = 0.264	758
375.75 K, 20720 kPa, x1 = 0.264	778
375.75 K, 24590 kPa, x1 = 0.264	797
376.35 K, 14860 kPa, x1 = 0.039	367
376.35 K, 15760 kPa, x1 = 0.039	406
376.65 K, 7970 kPa, x1 = 0.624	846
376.65 K, 10970 kPa, x1 = 0.624	852
376.65 K, 14930 kPa, x1 = 0.624	859
376.65 K, 19340 kPa, x1 = 0.624	864
379.45 K, 17410 kPa, x1 = 0.091	598
379.45 K, 20340 kPa, x1 = 0.091	675
379.45 K, 21900 kPa, x1 = 0.091	705
379.45 K, 24210 kPa, x1 = 0.091	731
387.35 K, 15480 kPa, x1 = 0.339	899
387.35 K, 18070 kPa, x1 = 0.339	912
387.35 K, 22790 kPa, x1 = 0.339	933
